This passage reports IC50 results from patent US20240101576A1, “HETEROCYCLIC INHIBITORS OF EGFR AND/OR HER2, FOR USE IN THE TREATMENT OF CANCER” (Scorpion Therapeutics, Inc., priority 2020, published 2024).

Each structure is given as a SMILES string.

What all share (assay type): cell-based
The target of experiment [1] is T1, EGFR exon 20 NPG Ins D770_N771 (Ba/F3 cells) (Homo sapiens, UniProt P00533, INS770NPG).
T1 construct: expressed in transfected cells; host or cells: Ba/F3 (murine pro-B cells), retroviral transduction, puromycin selection, IL3-independent pool
Kind of experiment: Inhibitor activity on EGFR-dependent cell growth (CellTiter-Glo, 72 h), Ba/F3 EGFR exon 20 NPG Ins. Conditions: read-out: BaF3 NPG IC50. The method in brief:
(§1)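 IC50s derive from a sigmoidal dose–response fit of CellTiter-Glo signal. The signal was normalised between […]-treated cells and cell-free medium. Ba/F3 mutant-EGFR cells, seeded at 400–800/well depending on the line, had 72 h of exposure to a 10-point, 3-fold compound series.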

The target of experiment [2] is T2, EGFR exon 20 SVD Ins D770_N771 (Ba/F3 cells) (Homo sapiens, UniProt P00533, INS770SVD).
T2 construct: expressed in transfected cells; host or cells: Ba/F3 (murine pro-B cells), retroviral transduction, puromycin selection, IL3-independent pool
Kind of experiment: Inhibitor activity on EGFR-dependent cell growth (CellTiter-Glo, 72 h), Ba/F3 EGFR exon 20 SVD Ins. Conditions: read-out: BaF3 SVD IC50. The method in brief: as §1

Experiment [3] deals with T2, EGFR exon 20 SVD Ins D770_N771 (Ba/F3 cells). Kind of experiment: Inhibitor activity on EGFR phosphorylation (pEGFR AlphaLISA, 2 h), Ba/F3 EGFR exon 20 SVD Ins. From the text:
Example B. Inhibitor Activity on EGFR phosphorylation (pEGFR)
EGFR mutant Ba/F3 cells were generated by transduction with retrovirus containing vectors expressing EGFR L858R, EGFR exon 19del, EGFR L858R/C797S, EGFR exon 20 NPG Ins D770_N771, EGFR exon 20 ASV Ins V769_D770, or EGFR exon 20 SVD Ins D770_N771 genes along with a puromycin selection marker. Transduced cells are selected with puromycin for 7 days and are then be transferred into culture media without Interleukin 3 (IL3). Surviving cells are confirmed to express EGFR by Western blot and maintained as a pool. CUTO14 cells were obtained from Dr. Robert C. Doebele at the University of Colorado. The IC50 date are included in Table 6 and Table 7.
1.1 Cells are harvested from flask into cell culture medium and the cell number counted.
1.2 Cells are diluted with culture medium to the desired density and 40 μL of cell suspension is added into each well of 384-well cell culture plate and the seeding density is 50K cells/well (Ba/F3) or 12.5K cells/well (CUTO14).
2 Compound Preparation and Treatment
2.1 Test compounds are dissolved to 10 mM in a DMSO stock solution. 45 μL of stock solution is transferred to a 384 polypropylene plate (pp-plate). Perform 3-fold, 10-point dilution via transferring 15 μL compound into 30 μL DMSO using a TECAN (EVO200) liquid handler.
2.2 Spin plates at room temperature at 1,000 RPM for 1 minute.
2.3 Transfer 5 nL of diluted compound from compound source plate into the cell plate.
2.4 After compound treatment for 2 hours, perform pEGFR detection by AlphaLISA for compound treatment plates as described in “Detection” section.
3 Detection by pEGFR AlphaLISA (Perkin-Elmer)
3.1 Plates are removed from incubators and equilibrated at room temperature for 10 minutes, and media was removed
3.2 10 μL of lysis buffer is added and plates shaken at 600 rpm for 1 hr.
3.3 Prepare acceptor mix just before use and dispense 5 μL of acceptor mix to all the wells. Shake 350 rpm for Ihr in the dark
3.4 Prepare donor mix under low light conditions prior to use. Dispense 5 μL of donor mix to all the wells. Mix well on the shaker, seal and wrap in aluminum foil and incubate 1.5 hrs at room temperature in the dark
3.5 Transfer 18.5 μL mixture to OptiPlate 384, and read using an Envision. The IC50 date were included in Table 6 and Table 7.

Experiment [4] deals with EGFR (CUTO14 cells) (Homo sapiens, UniProt P00533). Kind of experiment: Inhibitor activity on EGFR phosphorylation (pEGFR AlphaLISA, 2 h), CUTO14 cells. The method in brief: (§2)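 IL3-independent Ba/F3 cells transduced with mutant EGFR (50K/well) or CUTO14 cells (12.5K/well) were treated 2 h with 10-point, 3-fold compound dilutions. Phospho-EGFR in lysates was measured by AlphaLISA to derive IC50.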

Experiment [5] deals with T3, EGFR WT (Ba/F3 cells) (Homo sapiens, UniProt P00533).
T3 construct: expressed in transfected cells; host or cells: Ba/F3 (murine pro-B cells), retroviral transduction, puromycin selection, maintained with EGF
Kind of experiment: Inhibitor activity on EGFR-dependent cell growth (CellTiter-Glo, 72 h), Ba/F3 EGFR WT. Conditions: read-out: BaF3 WT IC50. The method in brief:
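This growth assay used Ba/F3 cells that depend on wild-type EGFR and are kept in EGF without IL3. Compounds were made up as 10 mM DMSO stocks and diluted 3-fold over 10 points. 120 nL went onto 600 cells/well. After 72 hours, 40 μL CellTiter-Glo was added and luminescence read on EnVision after 30 min.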

Experiment [6] addresses T4, EGFR exon 20 FQEA Ins A763_V764 (Ba/F3 cells) (Homo sapiens, UniProt P00533, INS763FQEA).
T4 construct: expressed in transfected cells; host or cells: Ba/F3 (murine pro-B cells), retroviral transduction, puromycin selection, IL3-independent pool
Kind of experiment: Inhibitor activity on EGFR-dependent cell growth (CellTiter-Glo, 72 h), Ba/F3 EGFR exon 20 FQEA Ins. The settings on record: read-out: BaF3 FQEA IC50. The method in brief: (§3)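 72 h proliferation, Ba/F3 EGFR mutants (no IL3, puromycin-selected pools, EGFR confirmed by Western blot). Seeding of 400 L858R, 600 L858R/C797S and 800 exon 19del/FQEA cells per well. CellTiter-Glo used; controls were […] (high) and medium alone (low).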

The target in experiment [7] is T5, EGFR exon 20 ASV Ins V769_D770 (Ba/F3 cells) (Homo sapiens, UniProt P00533, INS769ASV).
T5 construct: expressed in transfected cells; host or cells: Ba/F3 (murine pro-B cells), retroviral transduction, puromycin selection, IL3-independent pool
Kind of experiment: Inhibitor activity on EGFR-dependent cell growth (CellTiter-Glo, 72 h), Ba/F3 EGFR exon 20 ASV Ins. Conditions: read-out: BaF3 ASV IC50. The method in brief:
as §1

In experiment [8] the target is T5, EGFR exon 20 ASV Ins V769_D770 (Ba/F3 cells). Kind of experiment: Inhibitor activity on EGFR phosphorylation (pEGFR AlphaLISA, 2 h), Ba/F3 EGFR exon 20 ASV Ins. Conditions: EGFR phosphorylation, AlphaLISA, 2 hours; read-out: ASV IC50 (pEGFR). The method in brief:
as §2

Experiment [9] has as its target T1, EGFR exon 20 NPG Ins D770_N771 (Ba/F3 cells). Kind of experiment: Inhibitor activity on EGFR phosphorylation (pEGFR AlphaLISA, 2 h), Ba/F3 EGFR exon 20 NPG Ins. The method in brief: as §2
Experiment [10] addresses T6, EGFR L858R/C797S (Ba/F3 cells) (Homo sapiens, UniProt P00533, C797S/L858R).
T6 construct: expressed in transfected cells; host or cells: Ba/F3 (murine pro-B cells), retroviral transduction, puromycin selection, IL3-independent pool
Kind of experiment: Inhibitor activity on EGFR-dependent cell growth (CellTiter-Glo, 72 h), Ba/F3 EGFR L858R/C797S. The settings on record: read-out: BaF3 L858R/C797S IC50. The method in brief: as §3

The target in experiment [11] is T7, EGFR exon 19del (Ba/F3 cells) (Homo sapiens, UniProt P00533). Kind of experiment: Inhibitor activity on EGFR-dependent cell growth (CellTiter-Glo, 72 h), Ba/F3 EGFR exon 19del. Conditions: Ba/F3 EGFR exon 19del cell growth, read-out: BaF3 Del19 IC50. The method in brief: as §3
Experiment [12] concerns the target T7, EGFR exon 19del (Ba/F3 cells). Kind of experiment: Inhibitor activity on EGFR phosphorylation (pEGFR AlphaLISA, 2 h), Ba/F3 EGFR exon 19del. The settings on record: read-out: Del19 IC50 (pEGFR). The method in brief: as §2
Experiment [13] deals with T8, EGFR L858R (Ba/F3 cells) (Homo sapiens, UniProt P00533, L858R).
T8 construct: expressed in transfected cells; host or cells: Ba/F3 (murine pro-B cells), retroviral transduction, puromycin selection, IL3-independent pool
Kind of experiment: Inhibitor activity on EGFR phosphorylation (pEGFR AlphaLISA, 2 h), Ba/F3 EGFR L858R. The method in brief:
as §2

For experiment [14], the target named is T6, EGFR L858R/C797S (Ba/F3 cells). Kind of experiment: Inhibitor activity on EGFR phosphorylation (pEGFR AlphaLISA, 2 h), Ba/F3 EGFR L858R/C797S. The method in brief: as §2
Experiment [15] deals with T8, EGFR L858R (Ba/F3 cells). Kind of experiment: Inhibitor activity on EGFR-dependent cell growth (CellTiter-Glo, 72 h), Ba/F3 EGFR L858R. Conditions: read-out: BaF3 L858R IC50. The method in brief: as §3

T4 sequence (P00533 with tags, fused parts or gaps INS763FQEA): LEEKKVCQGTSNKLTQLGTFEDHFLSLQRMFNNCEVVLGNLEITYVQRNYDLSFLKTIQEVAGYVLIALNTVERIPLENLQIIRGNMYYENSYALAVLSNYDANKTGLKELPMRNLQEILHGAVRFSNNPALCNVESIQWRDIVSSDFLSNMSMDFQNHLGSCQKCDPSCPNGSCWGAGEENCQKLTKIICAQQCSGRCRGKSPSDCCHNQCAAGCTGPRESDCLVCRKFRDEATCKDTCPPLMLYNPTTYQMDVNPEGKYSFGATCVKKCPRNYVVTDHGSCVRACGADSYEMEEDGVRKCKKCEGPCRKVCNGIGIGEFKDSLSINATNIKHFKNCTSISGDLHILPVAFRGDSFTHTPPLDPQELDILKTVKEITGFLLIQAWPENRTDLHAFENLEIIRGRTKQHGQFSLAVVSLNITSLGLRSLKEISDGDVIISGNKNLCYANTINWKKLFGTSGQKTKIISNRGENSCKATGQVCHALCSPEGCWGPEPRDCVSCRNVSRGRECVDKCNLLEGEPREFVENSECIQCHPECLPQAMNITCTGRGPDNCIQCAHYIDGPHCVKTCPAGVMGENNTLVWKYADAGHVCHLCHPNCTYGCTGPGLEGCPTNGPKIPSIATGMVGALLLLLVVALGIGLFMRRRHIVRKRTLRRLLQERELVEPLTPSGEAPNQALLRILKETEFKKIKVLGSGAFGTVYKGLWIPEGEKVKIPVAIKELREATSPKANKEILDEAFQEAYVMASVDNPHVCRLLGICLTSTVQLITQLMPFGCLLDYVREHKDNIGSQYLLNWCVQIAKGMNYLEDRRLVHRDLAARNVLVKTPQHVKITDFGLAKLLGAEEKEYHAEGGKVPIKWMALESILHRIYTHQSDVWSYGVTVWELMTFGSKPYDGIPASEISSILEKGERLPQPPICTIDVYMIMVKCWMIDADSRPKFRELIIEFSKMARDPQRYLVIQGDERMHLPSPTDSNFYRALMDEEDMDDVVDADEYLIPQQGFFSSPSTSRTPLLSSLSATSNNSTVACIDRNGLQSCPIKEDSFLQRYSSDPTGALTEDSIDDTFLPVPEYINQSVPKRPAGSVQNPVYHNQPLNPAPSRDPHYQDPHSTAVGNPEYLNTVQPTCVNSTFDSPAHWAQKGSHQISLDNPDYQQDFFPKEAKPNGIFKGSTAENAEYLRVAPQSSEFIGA
EGFR (CUTO14 cells), sequence (P00533 with tags, fused parts or gaps DUP767-769): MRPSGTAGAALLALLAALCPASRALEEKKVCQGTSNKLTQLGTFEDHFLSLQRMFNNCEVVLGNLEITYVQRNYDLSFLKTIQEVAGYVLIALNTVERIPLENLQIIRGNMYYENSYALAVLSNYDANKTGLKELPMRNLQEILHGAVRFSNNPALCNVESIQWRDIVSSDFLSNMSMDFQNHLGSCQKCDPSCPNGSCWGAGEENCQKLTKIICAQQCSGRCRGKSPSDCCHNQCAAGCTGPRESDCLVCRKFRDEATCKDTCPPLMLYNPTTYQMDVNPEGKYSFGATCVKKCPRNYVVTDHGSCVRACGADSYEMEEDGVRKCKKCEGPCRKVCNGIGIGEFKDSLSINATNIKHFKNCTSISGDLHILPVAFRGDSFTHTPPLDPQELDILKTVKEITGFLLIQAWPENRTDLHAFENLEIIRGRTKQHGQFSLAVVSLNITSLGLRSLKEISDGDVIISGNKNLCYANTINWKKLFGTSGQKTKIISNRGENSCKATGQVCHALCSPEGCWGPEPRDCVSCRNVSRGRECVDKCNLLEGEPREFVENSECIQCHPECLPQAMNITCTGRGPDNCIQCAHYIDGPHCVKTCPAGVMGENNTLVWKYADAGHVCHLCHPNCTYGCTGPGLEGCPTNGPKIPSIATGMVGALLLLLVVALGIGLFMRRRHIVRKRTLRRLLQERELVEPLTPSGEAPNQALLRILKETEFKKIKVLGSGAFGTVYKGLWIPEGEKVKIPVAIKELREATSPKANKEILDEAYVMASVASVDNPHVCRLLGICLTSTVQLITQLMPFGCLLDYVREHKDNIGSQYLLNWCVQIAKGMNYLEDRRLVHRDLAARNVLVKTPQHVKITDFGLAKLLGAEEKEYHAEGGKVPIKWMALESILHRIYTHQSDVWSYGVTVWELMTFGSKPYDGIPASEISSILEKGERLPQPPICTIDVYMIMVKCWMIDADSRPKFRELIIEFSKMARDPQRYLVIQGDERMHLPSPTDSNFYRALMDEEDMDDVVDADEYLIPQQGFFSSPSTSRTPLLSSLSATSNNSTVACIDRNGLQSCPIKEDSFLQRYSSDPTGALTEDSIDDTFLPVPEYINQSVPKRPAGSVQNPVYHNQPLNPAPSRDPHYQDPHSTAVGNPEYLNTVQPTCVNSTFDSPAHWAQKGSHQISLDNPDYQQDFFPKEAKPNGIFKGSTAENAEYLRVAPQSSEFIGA
T2 sequence (P00533 with tags, fused parts or gaps INS770SVD): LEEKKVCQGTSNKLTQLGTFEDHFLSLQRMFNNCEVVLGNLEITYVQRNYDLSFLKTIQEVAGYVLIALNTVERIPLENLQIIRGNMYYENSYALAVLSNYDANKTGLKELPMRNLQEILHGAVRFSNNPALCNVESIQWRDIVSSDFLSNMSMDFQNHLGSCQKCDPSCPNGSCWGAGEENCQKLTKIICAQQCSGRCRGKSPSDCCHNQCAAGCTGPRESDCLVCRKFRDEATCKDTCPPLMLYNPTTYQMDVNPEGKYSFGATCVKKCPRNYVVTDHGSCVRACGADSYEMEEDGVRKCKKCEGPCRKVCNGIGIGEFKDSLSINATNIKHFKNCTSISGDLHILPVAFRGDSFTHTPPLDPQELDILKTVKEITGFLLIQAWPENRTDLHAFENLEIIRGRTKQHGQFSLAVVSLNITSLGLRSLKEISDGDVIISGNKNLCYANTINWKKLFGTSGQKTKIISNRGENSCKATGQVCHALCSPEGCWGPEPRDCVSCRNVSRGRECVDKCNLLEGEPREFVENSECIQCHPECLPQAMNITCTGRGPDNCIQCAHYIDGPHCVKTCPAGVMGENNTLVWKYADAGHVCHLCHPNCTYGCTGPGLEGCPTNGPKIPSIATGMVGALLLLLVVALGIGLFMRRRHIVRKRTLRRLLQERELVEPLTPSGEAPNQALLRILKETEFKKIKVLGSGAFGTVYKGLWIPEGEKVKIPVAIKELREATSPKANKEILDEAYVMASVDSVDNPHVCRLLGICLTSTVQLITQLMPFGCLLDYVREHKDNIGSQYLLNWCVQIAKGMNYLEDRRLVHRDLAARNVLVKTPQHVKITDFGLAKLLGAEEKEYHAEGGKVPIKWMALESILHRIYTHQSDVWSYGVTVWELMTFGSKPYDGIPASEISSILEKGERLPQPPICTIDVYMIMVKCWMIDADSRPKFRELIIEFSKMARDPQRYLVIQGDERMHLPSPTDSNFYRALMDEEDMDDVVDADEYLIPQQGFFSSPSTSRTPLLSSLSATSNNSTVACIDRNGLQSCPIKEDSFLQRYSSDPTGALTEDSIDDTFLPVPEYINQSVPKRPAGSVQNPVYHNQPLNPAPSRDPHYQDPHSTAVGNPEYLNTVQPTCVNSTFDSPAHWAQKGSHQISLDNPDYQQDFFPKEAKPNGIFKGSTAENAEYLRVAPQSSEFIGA
T7 sequence (P00533 with tags, fused parts or gaps DEL746-750): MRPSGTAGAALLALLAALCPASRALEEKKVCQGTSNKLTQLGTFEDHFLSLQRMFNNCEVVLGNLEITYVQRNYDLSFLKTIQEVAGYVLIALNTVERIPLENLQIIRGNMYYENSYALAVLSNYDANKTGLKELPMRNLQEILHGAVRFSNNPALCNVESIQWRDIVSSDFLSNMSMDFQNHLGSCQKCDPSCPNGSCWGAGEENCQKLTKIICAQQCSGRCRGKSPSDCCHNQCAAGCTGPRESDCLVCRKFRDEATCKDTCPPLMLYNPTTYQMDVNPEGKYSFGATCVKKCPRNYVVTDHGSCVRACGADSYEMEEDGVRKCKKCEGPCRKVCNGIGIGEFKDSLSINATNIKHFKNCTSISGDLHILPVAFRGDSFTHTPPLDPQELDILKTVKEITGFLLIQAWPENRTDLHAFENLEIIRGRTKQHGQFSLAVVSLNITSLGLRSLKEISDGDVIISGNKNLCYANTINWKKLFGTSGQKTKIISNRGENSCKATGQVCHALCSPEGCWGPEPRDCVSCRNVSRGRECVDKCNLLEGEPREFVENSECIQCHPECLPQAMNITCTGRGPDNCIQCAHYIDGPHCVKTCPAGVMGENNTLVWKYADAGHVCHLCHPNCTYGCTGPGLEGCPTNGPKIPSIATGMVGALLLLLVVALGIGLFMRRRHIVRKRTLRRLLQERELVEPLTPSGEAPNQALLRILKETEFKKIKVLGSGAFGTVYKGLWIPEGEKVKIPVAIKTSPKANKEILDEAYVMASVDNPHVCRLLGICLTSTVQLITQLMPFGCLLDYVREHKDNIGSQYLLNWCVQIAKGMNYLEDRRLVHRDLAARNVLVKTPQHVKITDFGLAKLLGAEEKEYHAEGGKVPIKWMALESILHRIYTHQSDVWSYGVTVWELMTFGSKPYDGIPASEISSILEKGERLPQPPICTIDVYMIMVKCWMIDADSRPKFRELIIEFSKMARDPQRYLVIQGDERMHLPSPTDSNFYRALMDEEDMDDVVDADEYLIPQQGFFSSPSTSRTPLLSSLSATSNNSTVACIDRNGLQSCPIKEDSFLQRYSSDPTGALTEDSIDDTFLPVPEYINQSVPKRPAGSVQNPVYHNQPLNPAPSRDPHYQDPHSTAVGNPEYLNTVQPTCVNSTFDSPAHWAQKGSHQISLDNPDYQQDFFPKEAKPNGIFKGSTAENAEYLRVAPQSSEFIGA

Take `COCC[C@@H]1CNC(=O)c2c1[nH]c(-c1ccnc(N)n1)c2Nc1cccc(Cl)c1OC` [Compound 726, (7R)-2-(2-aminopyrimidin-4-yl)-3-[(3-chloro-2-methoxyphenyl)amino]-7-(2-methoxyethyl)-1H,5H,6H,7H-pyrrolo[3,2-c]pyridin-4 one]: the IC50 in [1], in experiment [2], in [3], in experiment [4], in experiment [5] and in [6] was less than 100 nM each time. Moreover, the IC50 in [7], in [8] and in [9] was less than 100 nM in each case.

For the molecule `COc1c(F)cccc1Nc1c(-c2ccncn2)[nH]c2c1C(=O)NC[C@H]2C[C@@H]1COCCO1` [Compound 569, (7R)-7-[(2R)-1,4-dioxan-2-ylmethyl]-3-[(3-fluoro-2-methoxyphenyl)amino]-2-(pyrimidin-4-yl)-1H,5H,6H,7H-pyrrolo[3,2-c]pyridin-4-one], the IC50 in experiment [10], in experiment [1], in experiment [11], in [2], in [4] and in experiment [12] was less than 100 nM throughout. Also, the IC50 in experiment [5] was 100 to 1000 nM; in experiment [6] it was less than 100 nM; in experiment [13] it was less than 100 nM; in [7], less than 100 nM; in [14] it was less than 100 nM; in experiment [15] it was less than 100 nM.

Consider `COc1ncc2nccc(-c3[nH]c4c(c3Nc3cccc(Cl)c3OC)C(=O)NCC4)c2n1` [compound 408], for which the IC50 in [1], in [2], in [3], in experiment [4], in [5] and in [6] was less than 100 nM each time. Moreover, the IC50 in experiment [7], in experiment [8] and in [9] was less than 100 nM in each case.

Consider `COc1c(F)cccc1Nc1c(-c2ccnc(C)n2)[nH]c2c1C(=O)NCC2C[C@H]1COCCO1` (single isomer, unassigned) [Compound 606], for which the IC50 in experiment [10], in experiment [1], in [11], in experiment [2], in experiment [4] and in [12] was less than 100 nM each time. The IC50 in experiment [5] was 100 to 1000 nM; in [6], less than 100 nM; in experiment [13], less than 100 nM; in experiment [7], less than 100 nM; in experiment [14], less than 100 nM; in [15], less than 100 nM.

For the molecule `COc1c(Cl)cccc1Nc1c(-c2ccnc(N)n2)[nH]c2c1C(=O)NCC2` [Compound 148, 2-(2-aminopyrimidin-4-yl)-3-((3-chloro-2-methoxyphenyl)amino)-1,5,6,7-tetrahydro-4H-pyrrolo[3,2-c]pyridin-4-one], the IC50 is less than 100 nM in experiment [1]; less than 100 nM in [3]; less than 100 nM in [4]; 100 to 1000 nM in [5]; 100 to 1000 nM in experiment [6]; less than 100 nM in [8]. The same molecule came in with an IC50 in experiment [9] of less than 100 nM.

Take `C=CC(=O)N1CCC2(CC1)CNC(=O)c1c2[nH]c(-c2ccnc3ccc(OC)nc23)c1Nc1cccc(F)c1OC` [Compound 160, 1-acryloyl-3′-((3-fluoro-2-methoxyphenyl)amino)-2′-(6-methoxy-1,5-naphthyridin-4-yl)-5′,6′-dihydrospiro[piperidine-4,7′-pyrrolo[3,2-c]pyridin]-4′(1′H)-one]: the IC50 in [1], in experiment [2], in experiment [3], in experiment [4], in experiment [6] and in [7] was less than 100 nM each time. Further, the IC50 in experiment [8] and in [9] was less than 100 nM each time.

`COc1c(F)cccc1Nc1c(-c2ccnc(C)n2)[nH]c2c1C(=O)NCC2C[C@@H]1COCCO1` (single isomer, unassigned) [Compound 604]: the IC50 in experiment [10], in [1], in experiment [11], in experiment [2], in experiment [4] and in experiment [12] was less than 100 nM in each case. Also, the IC50 was 100 to 1000 nM in experiment [5]; less than 100 nM in experiment [6]; less than 100 nM in experiment [13]; less than 100 nM in experiment [7]; less than 100 nM in experiment [14]; less than 100 nM in experiment [15].

For `COc1c(Cl)cccc1Nc1c(-c2ccnc3c(N)noc23)[nH]c2c1C(=O)NCC2` [compound 524, 2-{3-amino-[1,2]oxazolo[4,5-b]pyridin-7-yl}-3-[(3-chloro-2-methoxyphenyl)amino]-1H,5H,6H,7H-pyrrolo[3,2-c]pyridin-4-one], the IC50 is less than 100 nM in experiment [1]; less than 100 nM in experiment [2]; less than 100 nM in [3]; less than 100 nM in experiment [4]; 100 to 1000 nM in [5]; less than 100 nM in [7]. Further, the IC50 in experiment [8] and in [9] was less than 100 nM each time.
